Test results taken from patent US5227466A, “Insulin receptor binding site” (City of Hope, priority 1988, dated 1993).
Where a SMILES comes first, the peptide text is derived from it.

Target: ^125 I-insulin (Homo sapiens, UniProt P01308)
Assay: 125I-insulin binding to water suspension of the peptide, centrifugation
Procedure: To test for insulin binding, a water suspension of the peptide was incubated at room temperature with a tracer of ^125 I-insulin followed by simple centrifugation. […] The apparent dissociation constant was ~6×10^-7 M. Non-specific binding was negligible.

^125 I-insulin, sequence (P01308 25-54 limits assumed): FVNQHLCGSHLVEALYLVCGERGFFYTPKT
^125 I-insulin, sequence (P01308 90-110 limits assumed): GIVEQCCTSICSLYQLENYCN

For `CC[C@H](C)[C@H](NC(=O)[C@@H](NC(=O)[C@H](CC(C)C)NC(=O)[C@H](C)NC(=O)[C@H](Cc1ccc(O)cc1)NC(=O)[C@H](CC(N)=O)NC(=O)[C@H](Cc1ccccc1)NC(=O)[C@H](Cc1ccccc1)NC(=O)[C@H](CC(C)C)NC(=O)[C@@H](N)CCCNC(=N)N)C(C)C)C(=O)N[C@@H](Cc1ccccc1)C(=O)N[C@@H](CCC(=O)O)C(=O)N[C@@H](CCSC)C(=O)N[C@H](C(=O)N[C@@H](Cc1c[nH]cn1)C(=O)N[C@@H](CC(C)C)C(=O)N[C@@H](CCCCN)C(=O)N[C@@H](CCC(=O)O)C(=O)O)C(C)C` [Sequence I] (H-RLFFNYALVIFEMVHLKE-OH), the Kd (displacement of ^125 I-insulin by unlabelled insulin (FIG. 4), read-out: apparent dissociation constant) was roughly 600 nM and the “fraction of ^125 I-insulin tracer bound by the peptide” value (water suspension of the peptide, room temperature, centrifugation) was “up to 30%”.
